US20050074827A1, “Methods for identifying modulators of quorum-sensing signaling in bacteria” (priority 2003, published 2005)

Experiments:
[1] = tested on: LasR-controlled promoter PrsaL (yfp reporter) in MW1.pUM15; assay: Titration of yfp expression in MW1.pUM15 against autoinducer concentration; type: cell-based, Pseudomonas aeruginosa
Source text: Strain Construction. We tested whether the P. aeruginosa quorum-sensing-controlled promoter for the rsaL gene (PrsaL) can be used in high-throughput screening to identify modulators of quorum-sensing signaling. We constructed a plasmid (designated pUM15) with yfp under control of the P. aeruginosa LasR-controlled promoter PrsaL and introduced the plasmid into P. aeruginosa wild-type strain PAO1 (designated PAO1.pUM15). In PAO1.pUM15, the expression of yfp is dependent on the endogenously synthesized autoinducer, 3-oxo-C12-HSL. Thus, fluorescence will be altered if a test compound modulates any aspect of signaling, including, e.g., signal synthesis, stability, reception, or expression of LasR-dependent genes. Accordingly, we designated this assay the “Complete Signaling Assay” or CSA. […]
Measurement of Reporter Gene Product. We measured fluorescence with an excitation filter at 485 nm and an emission filter at 535 nm in a Tecan SPECTRAFluor Plus plate reader. […]
Expression Depends on Autoinducer. […] We detected very little fluorescence in MW1.pUM15 culture grown in the absence of signal molecule (FIG. 1).
The Assay Mimics Naturally Occurring Quorum-Sensing Signaling. […] We observed that fluorescence in MW1.pUM15 is half-maximal at 200±100 nM 3-oxo-C12-HSL (FIG. 2). […] We also confirmed that expression of yfp is quorum-sensing dependent by graphing fluorescence per cell against cell density (FIG. 3). […]

[2] = cell-based binding assay, Passador et al., J. Bacteriol. 178: 5995-6000 (1996); read-out: half-maximal saturation; cited from earlier work

CCCCCCCCCC(=O)CC(=O)NC1CCOC1=O (stereo not drawn) [3-oxo-C12-HSL]
EC50 ([1]; MW1.pUM15, yfp fluorescence, FIG. 2, read-out: 3-oxo-C12-HSL concentration at which fluorescence in MW1.pUM15 is half-maximal): 0.2 ± 0.1 µM
effect on yfp expression in MW1.pUM15 ([1]; addition of autoinducer, 0.9 mM per FIG. 1 legend): restored expression of yfp
Kd [2]: 0.2 µM
